A word on the IC50: it is the point on the concentration scale where inhibition reaches its midpoint. High values mean weaker potency, low ones greater potency.

For the assay, the system named is Endogenous Huntingtin Protein. Kind of assay: Endogenous Huntingtin Protein Assay (ELISA-based MSD electrochemiluminescence). The settings on record: Table 1. The format is cell-based. The method, boiled down: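 Huntingtin was captured overnight at 4 °C on plates coated with 1 μg/mL MW1 (polyQ-expanded) or MAB2166 antibody and BSA-blocked. Detection used a rabbit monoclonal and then a SULFO-TAG goat anti-rabbit antibody (0.25 μg/mL, 1 h each, room temperature). Signal was read by electrochemiluminescence.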
Background: In an ELISA, binding on a coated surface is turned into a signal by an enzyme label.
For the molecule `Cc1cn2cc(-c3cc4sc(C5CCNCC5)nc4cn3)ccc2n1` [Compound 77, 6-(2-methylimidazo[1,2-a]pyridin-6-yl)-2-(piperidin-4-yl)[1,3]thiazolo[4,5-c]pyridine], the IC50 fell in the range of 0.1 to 0.5 µM. The figure for `Cc1cn2cc(-c3ccc4nc(N(C)C5CC6CCC(C5)N6)sc4n3)cc(C#N)c2n1` (stereo not drawn) [Compound 276, 6-{2-[(3-exo)-8-azabicyclo[3.2.1]oct-3-yl(methyl)amino][1,3]thiazolo[5,4-b]pyridin-5-yl}-2-methylimidazo[1,2-a]pyridine-8-carbonitrile] is at most 0.1 µM; for `CN(c1nc2nnc(-c3ccc(-c4cn[nH]c4)cc3O)cc2s1)C1CC2(CNC2)C1` [Compound 356, 2-{6-[(2-azaspiro[3.3]heptan-6-yl)(methyl)amino][1,3]thiazolo[4,5-c]pyridazin-3-yl}-5-(1H-pyrazol-4-yl)phenol] it is 0.1 to 0.5 µM. The result for `Cc1cn2cc(-c3cc4sc(N[C@@H]5C[C@H]6CC[C@@H](C5)N6C)nc4cn3)cc(C#N)c2n1` [Compound 245, 2-methyl-6-(2-{[(3-exo)-8-methyl-8-azabicyclo[3.2.1]oct-3-yl]amino][1,3]thiazolo[4,5-c]pyridin-6-yl)imidazo[1,2-a]pyridine-8-carbonitrile] reads 1 to 3 µM. In turn, `Cc1cn2nc(-c3cc(F)c4nc(N(C)C5CCN[C@@H](C)C5)sc4c3)ccc2n1` (stereo partly drawn) [Compound 164, 4-fluoro-N-methyl-6-(2-methylimidazo[1,2-b]pyridazin-6-yl)-N-[(2S)-2-methylpiperidin-4-yl]-1,3-benzothiazol-2-amine] registered an IC50 of at most 0.1 µM. The result for `Cn1cc2cc(-c3cc4sc(OC5CC(C)(C)NC(C)(C)C5)nc4cn3)cc(F)c2n1` [Compound 312, 6-(7-fluoro-2-methyl-2H-indazol-5-yl)-2-[(2,2,6,6-tetramethylpiperidin-4-yl)oxy][1,3]thiazolo[4,5-c]pyridine] reads 0.1 to 0.5 µM; that for `Cn1cc2cc(-c3ccc4nc(C5CC(C)(C)NC(C)(C)C5)sc4c3)ccc2n1` [Compound 52, 6-(2-methyl-2H-indazol-5-yl)-2-(2,2,6,6-tetramethylpiperidin-4-yl)-1,3-benzothiazole], 1 to 3 µM; that for `Cc1cn2cc(-c3cc(F)c4nc(N(C)C5CCNCC5)sc4c3)cc(C#N)c2n1` [Compound 226, 6-{4-fluoro-2-[methyl(piperidin-4-yl)amino]-1,3-benzothiazol-6-yl}-2-methylimidazo[1,2-a]pyridine-8-carbonitrile], at most 0.1 µM. The result for `Cc1cn2cc(-c3ncc4nc(N(C)[C@@H]5CC(C)(C)NC(C)(C)[C@@H]5F)sc4n3)cc(C#N)c2n1` [Compound 324, 6-(2-{[(3R,4R)-3-fluoro-2,2,6,6-tetramethylpiperidin-4-yl](methyl)amino}[1,3]thiazolo[5,4-d]pyrimidin-5-yl)-2-methylimidazo[1,2-a]pyridine-8-carbonitrile] reads at most 0.1 µM; that for `CN1CCC(c2ccc3nc(-c4ccc5nn(C)cc5c4)sc3c2)CC1` [Compound 10, 2-(2-methyl-2H-indazol-5-yl)-6-(1-methylpiperidin-4-yl)-1,3-benzothiazole], 1 to 3 µM. In turn, `CN1CCC2(CCN(c3nc4nnc(-c5ccc(-c6cn[nH]c6)cc5O)cc4s3)C2)C1` (centres unmarked) [Compound 340, 2-[6-(7-methyl-2,7-diazaspiro[4.4]nonan-2-yl)[1,3]thiazolo[4.5-c]pyridazin-3-yl]-5-(1H-pyrazol-4-yl)phenol] had a concentration for half-maximal inhibition (IC50) of 1 to 3 µM.

The molecule `Cc1cn2cc(-c3ccc4nc(C5CCNCC5)sc4c3)cnc2n1` [Compound 156, 2-methyl-6-[2-(piperidin-4-yl)-1,3-benzothiazol-6-yl]imidazo[1,2-a]pyrimidine] returned an IC50 of 1 to 3 µM.

Regarding `CN(c1nc2cnc(-c3cc(F)c4nn(C)cc4c3)cc2s1)C1CC(C)(C)NC(C)(C)C1` [Compound 86, 6-(7-fluoro-2-methyl-2H-indazol-5-yl)-N-methyl-N-(2,2,6,6-tetramethylpiperidin-4-yl)[1,3]thiazolo[4,5-c]pyridin-2-amine], the concentration for half-maximal inhibition (IC50) is at most 0.1 µM.

`Cn1cc2cc(-c3nc4ccc(C5=CCNCC5)cc4s3)ccc2n1` [Compound 4, 2-(2-methyl-2H-indazol-5-yl)-6-(1,2,3,6-tetrahydropyridin-4-yl)-1,3-benzothiazole] returned a concentration for half-maximal inhibition (IC50) of 0.1 to 0.5 µM. The result for `CN1CC[C@H]2CN(c3nc4nnc(-c5ccc(-c6cn[nH]c6)cc5O)cc4s3)[C@H]2C1` [Compound 390, 2-{6-[(1R,6S)-3-methyl-3,8-diazabicyclo[4.2.0]octan-8-yl][1,3]thiazolo[4,5-c]pyridazin-3-yl}-5-(1H-pyrazol-4-yl)phenol] reads at most 0.1 µM. The result for `CN(c1nc2ccc(-c3cc(C#N)c4nn(C)cc4c3)cc2s1)C1CC(C)(C)NC(C)(C)C1` [Compound 62, 2-methyl-5-{2-[methyl(2,2,6,6-tetramethylpiperidin-4-yl)amino]-1,3-benzothiazol-6-yl}-2H-indazole-7-carbonitrile] reads at most 0.1 µM. The molecule `Cc1cn2cc(-c3ncc4nc(N(C)C5CC(C)(C)NC(C)(C)C5)sc4n3)cc(C)c2n1` [Compound 183, 5-(2,8-dimethylimidazo[1,2-a]pyridin-6-yl)-N-methyl-N-(2,2,6,6-tetramethylpiperidin-4-yl)[1,3]thiazolo[5,4-d]pyrimidin-2-amine] returned an IC50 of at most 0.1 µM. The figure for `Cc1cn2nc(-c3cc(F)c4nc(N(C)C5CCNCC5)sc4c3)cc(C#N)c2n1` [Compound 231, 6-{4-fluoro-2-[methyl(piperidin-4-yl)amino]-1,3-benzothiazol-6-yl}-2-methylimidazo[1,2-b]pyridazine-8-carbonitrile] is at most 0.1 µM.

Regarding `CN(c1nc2nnc(-c3ccc(-c4cn[nH]c4)cc3O)cc2s1)C1CCNC1` (centres unmarked) [Compound 374, 2-{6-[methyl(pyrrolidin-3-yl)amino][1,3]thiazolo[4,5-c]pyridazin-3-yl}-5-(1H-pyrazol-4-yl)phenol], the IC50 was at most 0.1 µM. The molecule `Cc1cn2nc(-c3cc(F)c4nc(C5(C)CCNCC5)sc4c3)cc(C)c2n1` [Compound 210, 6-[4-fluoro-2-(4-methylpiperidin-4-yl)-1,3-benzothiazol-6-yl]-2,8-dimethylimidazo[1,2-b]pyridazine] gave an IC50 of 0.5 to 1 µM. `Cc1cn2cc(-c3cnc4nc(N(C)C5CCNCC5)sc4n3)cc(C)c2n1` [Compound 288, 6-(2,8-dimethylimidazo[1,2-a]pyridin-6-yl)-N-methyl-N-(piperidin-4-yl)[1,3]thiazolo[4,5-b]pyrazin-2-amine] yielded a 50% inhibitory concentration (IC50) of 0.1 to 0.5 µM. The figure for `Cc1cn2nc(-c3cc(F)c4nc(OC5CCNCC5)sc4c3)cc(C)c2n1` [Compound 306, 6-{4-fluoro-2-[(piperidin-4-yl)oxy]-1,3-benzothiazol-6-yl}-2,8-dimethylimidazo[1,2-b]pyridazine] is at most 0.1 µM; for `Cc1cn2cc(-c3cc4sc(N(C)C5CCN(C)C(C)C5)nc4cn3)cc(C#N)c2n1` (centres unmarked) [Compound 379, 6-{2-[(1,2-dimethylpiperidin-4-yl)(methyl)amino][1,3]thiazolo[4,5-c]pyridin-6-yl}-2-methylimidazo[1,2-a]pyridine-8-carbonitrile] it is at most 0.1 µM. The result for `Cc1cn2cc(-c3ccc4nc(N(C)C5CC(C)(C)NC(C)(C)C5)sc4c3)cc(F)c2n1` [Compound 111, 6-(8-fluoro-2-methylimidazo[1,2-a]pyridin-6-yl)-N-methyl-N-(2,2,6,6-tetramethylpiperidin-4-yl)-1,3-benzothiazol-2-amine] reads at most 0.1 µM; that for `Cc1cn2nc(-c3cc4sc(N(C)C5CC(C)(C)NC(C)(C)C5)nc4cn3)cc(C)c2n1` [Compound 90, 6-(2,8-dimethylimidazo[1,2-b]pyridazin-6-yl)-N-methyl-N-(2,2,6,6-tetramethylpiperidin-4-yl)[1,3]thiazolo[4,5-c]pyridin-2-amine], 0.1 to 0.5 µM.

For the molecule `CN(C)[C@H]1C[C@@H](N(C)c2nc3nnc(-c4ccc(-c5cn[nH]c5)cc4O)cc3s2)C1` [Compound 364, 2-(6-{[(1s,3s)-3-(dimethylamino)cyclobutyl](methyl)amino}[1,3]thiazolo[4,5-c]pyridazin-3-yl)-5-(1H-pyrazol-4-yl)phenol], the 50% inhibitory concentration (IC50) fell in the range of 1 to 3 µM.

On to `Cn1cc2cc(-c3cc4sc(OC5CC(C)(C)NC(C)(C)C5)nc4cn3)cc(C#N)c2n1` [Compound 311, 2-methyl-5-{2-[(2,2,6,6-tetramethylpiperidin-4-yl)oxy][1,3]thiazolo[4,5-c]pyridin-6-yl}-2H-indazole-7-carbonitrile], for which the half-maximal inhibitory concentration (IC50) is at most 0.1 µM. Molecule `CN(c1nc2nnc(-c3ccc(-c4cn[nH]c4)cc3O)cc2s1)[C@@H]1CCCNC1` [Compound 348, 2-(6-{methyl[(3R)-piperidin-3-yl]amino}[1,3]thiazolo[4,5-c]pyridazin-3-yl)-5-(1H-pyrazol-4-yl)phenol] came in with an IC50 of 0.1 to 0.5 µM. The figure for `COc1cc(-c2ncc3nc(N(C)C4CC(C)(C)NC(C)(C)C4)sc3n2)cc2cn(C)nc12` [Compound 197, 5-(7-methoxy-2-methyl-2H-indazol-5-yl)-N-methyl-N-(2,2,6,6-tetramethylpiperidin-4-yl)[1,3]thiazolo[5,4-d]pyrimidin-2-amine] is 0.1 to 0.5 µM; for `Cc1nc2c(C#N)cc(-c3ncc4nc(N(C)C5CC6(C)CC[C@](C)(C5)N6)sc4n3)cc2o1` (stereo partly drawn) [Compound 290, 6-(2-{[(1R)-1,5-dimethyl-8-azabicyclo[3.2.1]octan-3-yl](methyl)amino}[1,3]thiazolo[5,4-d]pyrimidin-5-yl)-2-methyl-1,3-benzoxazole-4-carbonitrile] it is at most 0.1 µM.

For the molecule `CN1CC=C(c2nc3ccc(-c4ccc5nn(C)cc5c4)cc3s2)CC1` [Compound 3, 6-(2-methyl-2H-indazol-5-yl)-2-(1-methyl-1,2,3,6-tetrahydropyridin-4-yl)-1,3-benzothiazole], the IC50 was 0.5 to 1 µM. The figure for `Cc1cn2cc(-c3cc4sc(N(C)C5CC6(C)CCC(C)(C5)N6)nc4cn3)cc(C)c2n1` [Compound 299, N-[(1R,3s,5S)-1,5-dimethyl-8-azabicyclo[3.2.1]octan-3-yl]-6-(2,8-dimethylimidazo[1,2-a]pyridin-6-yl)-N-methyl[1,3]thiazolo[4,5-c]pyridin-2-amine] is at most 0.1 µM.
